Among the test systems are BT-549 breast; CCRF-CEM leukemia; HOP-62 NSCLC; KM12 colon; MDA-MB-435; NCI-H23 lung; NCI/ADR-RES ovarian; RXF 393 renal; SF-295 CNS; SK-MEL-2 melanoma.
What all share (assay): inhibition of tumour cell growth, NCI panel, 48 h

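Interpolation was linear, between the two tested concentrations surrounding the appropriate level; five concentrations were tested over 48 hours in 96-well plates. The concentration for 50% growth inhibition is given as GI50. At the TGI there is no net growth.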 Some results are limits rather than exact numbers.

Turning to `CC(=Nc1ccccc1)C1=C(O)C(Cc2cccc(F)c2)NC1=O` (centres undefined), the GI50 was 0.173 µM in the assay with BT-549 breast; 0.0581 µM in the assay on CCRF-CEM leukemia; 0.0557 µM with HOP-62 NSCLC; 0.0457 µM with KM12 colon; 0.018 µM with MDA-MB-435; 0.101 µM in the assay on NCI-H23 lung. Moreover, the GI50 is 0.0348 µM in the assay on NCI/ADR-RES ovarian, 0.0186 µM in the assay on RXF 393 renal, 0.0312 µM in the assay with SF-295 CNS and 0.0626 µM in the assay with SK-MEL-2 melanoma. In addition, the TGI in the assay on BT-549 breast is > 100 µM; in the assay on CCRF-CEM leukemia it was > 100 µM; in the assay with HOP-62 NSCLC, > 100 µM; in the assay on KM12 colon, > 100 µM; in the assay on MDA-MB-435, 0.056 µM; with NCI-H23 lung it was > 100 µM. Further, the TGI in the assay on NCI/ADR-RES ovarian was 0.186 µM; in the assay with RXF 393 renal it was 0.0561 µM; with SF-295 CNS, 0.184 µM; in the assay with SK-MEL-2 melanoma it was > 100 µM.

Regarding `CCC#CC[C@H](O)C/C=C1/C(=O)C=C[C@@H]1C/C=C\CCCC(=O)OC`, the GI50 was 1.22 µM in the assay with BT-549 breast; 0.413 µM in the assay on CCRF-CEM leukemia; 1.56 µM with HOP-62 NSCLC; 1.5 µM in the assay on MDA-MB-435; 1.02 µM with NCI-H23 lung; 1.16 µM in the assay on NCI/ADR-RES ovarian. The values for the GI50 in the assay on RXF 393 renal, in the assay on SF-295 CNS and with SK-MEL-2 melanoma were 0.865 µM, 1.28 µM and 0.995 µM, respectively. Moreover, the TGI in the assay on BT-549 breast came to 3.04 µM; in the assay with CCRF-CEM leukemia it was 5.66 µM; in the assay with HOP-62 NSCLC, 4.49 µM; with MDA-MB-435, 5.92 µM; in the assay with NCI-H23 lung it was 2.78 µM; in the assay with NCI/ADR-RES ovarian, 3.4 µM. Also, the results for the TGI with RXF 393 renal, with SF-295 CNS and in the assay with SK-MEL-2 melanoma were 1.64 µM, 3.15 µM and 2.76 µM, respectively.

For the compound `COc1ccc(OC)c(NC(=O)c2cccc(NC3=C(Cl)C(=O)N(Cc4ccccc4)C3=O)c2)c1`, the GI50 in the assay on BT-549 breast was 18.3 µM; with HOP-62 NSCLC, > 83.5 µM; in the assay on KM12 colon, > 100 µM; in the assay on MDA-MB-435 it was > 64.7 µM; with NCI-H23 lung, > 70.8 µM; with NCI/ADR-RES ovarian, > 67.8 µM. The values for the GI50 with RXF 393 renal, in the assay with SF-295 CNS and with SK-MEL-2 melanoma were > 74.6 µM, > 75.3 µM and > 100 µM, respectively. In addition, the TGI in the assay with BT-549 breast, with CCRF-CEM leukemia, in the assay on HOP-62 NSCLC, in the assay with KM12 colon, in the assay on MDA-MB-435 and in the assay with NCI-H23 lung was > 100 µM throughout. For the same compound, the TGI in the assay with NCI/ADR-RES ovarian, in the assay on RXF 393 renal, in the assay on SF-295 CNS and in the assay on SK-MEL-2 melanoma was > 100 µM in each case.

Turning to `CC(CN1CC(=O)NC(=O)C1)N1CC(=O)NC(=O)C1` (centres undefined), the TGI was > 750 µM in the assay with BT-549 breast; > 662 µM in the assay with CCRF-CEM leukemia; 709 µM with HOP-62 NSCLC; > 729 µM in the assay on KM12 colon; > 750 µM with MDA-MB-435; > 750 µM with NCI-H23 lung. Further, the TGI in the assay with NCI/ADR-RES ovarian is > 698 µM; in the assay with RXF 393 renal, > 750 µM; in the assay on SF-295 CNS, > 750 µM; with SK-MEL-2 melanoma it was 741 µM. Further, the GI50 in the assay on HOP-62 NSCLC was 114 µM.

Regarding `Cc1cc(C(=O)Nc2cc(Oc3ccc4nc(NC(=O)C5CC5)cn4n3)ccc2C)n(C)n1`, the GI50 in the assay with BT-549 breast was 6.42 µM; in the assay with CCRF-CEM leukemia it was > 10 µM; in the assay on HOP-62 NSCLC, > 10 µM; with KM12 colon, > 10 µM; in the assay with MDA-MB-435, 3.22 µM; in the assay on NCI-H23 lung it was > 10 µM. The GI50 in the assay on NCI/ADR-RES ovarian was > 10 µM; with RXF 393 renal, 7.46 µM; in the assay on SF-295 CNS, > 10 µM; with SK-MEL-2 melanoma, > 10 µM. Besides, the TGI in the assay on BT-549 breast, with CCRF-CEM leukemia, in the assay with HOP-62 NSCLC, in the assay on KM12 colon, with MDA-MB-435 and with NCI-H23 lung was > 10 µM each time. Also, the TGI with NCI/ADR-RES ovarian, in the assay with RXF 393 renal, in the assay on SF-295 CNS and with SK-MEL-2 melanoma was > 10 µM each time.

`CCCCC[C@H]1CC=C2C(=O)C=C[C@@H]2CC=CCCCC(=O)O[C@@H](CCCCC)CC=C2C(=O)C=C[C@@H]2CC=CCCCC(=O)O[C@@H](CCCCC)CC=C2C(=O)C=C[C@@H]2CC=CCCCC(=O)O1`: the GI50 was 0.241 µM in the assay with BT-549 breast; 0.251 µM in the assay with CCRF-CEM leukemia; 0.259 µM in the assay with HOP-62 NSCLC; 0.31 µM in the assay with KM12 colon; 0.183 µM with MDA-MB-435; 0.3 µM with NCI-H23 lung. The GI50 in the assay with NCI/ADR-RES ovarian was 4.24 µM; with RXF 393 renal, 0.194 µM; with SF-295 CNS, 0.432 µM; with SK-MEL-2 melanoma, 0.281 µM. Also, the TGI was 0.772 µM in the assay on BT-549 breast; > 8.75 µM with CCRF-CEM leukemia; 0.775 µM in the assay with HOP-62 NSCLC; 1.22 µM with KM12 colon; 0.526 µM in the assay on MDA-MB-435; 1.93 µM in the assay on NCI-H23 lung. The TGI is > 8.75 µM with NCI/ADR-RES ovarian, 0.422 µM in the assay on RXF 393 renal, 5.13 µM in the assay with SF-295 CNS and 0.969 µM in the assay on SK-MEL-2 melanoma.

Take `CCN(CC)CCC(=O)OC1C(C)=CC(C)C(=O)CC(C(C)CC2CCC(O)C(OC)C2)OC(=O)C2CCCCN2C(=O)C(=O)[C@@]2(O)OC(CCC2C)CC(OC)\C(C)=C/C=C/C=C/C(C)CC(C)C(=O)C1OC` (some centres undefined): the TGI came to 15.5 µM in the assay on BT-549 breast; 13.8 µM in the assay on CCRF-CEM leukemia; 21.1 µM in the assay on HOP-62 NSCLC; 21.2 µM with KM12 colon; 21.2 µM with MDA-MB-435; 26.4 µM in the assay with NCI-H23 lung. Further, the TGI in the assay on NCI/ADR-RES ovarian is 25.8 µM; with RXF 393 renal, 15.2 µM; with SF-295 CNS it was 18.5 µM; in the assay on SK-MEL-2 melanoma it was 18.9 µM.

On to `CCOc1cc(C(=O)O)c2c(ccc3ccc(OC)c(OC)c32)c1OC`, for which the TGI with BT-549 breast, in the assay on CCRF-CEM leukemia, with HOP-62 NSCLC, in the assay on KM12 colon, in the assay with MDA-MB-435 and in the assay on NCI-H23 lung was > 100 µM each time. Besides, the TGI in the assay with NCI/ADR-RES ovarian, in the assay with RXF 393 renal, in the assay with SF-295 CNS and in the assay with SK-MEL-2 melanoma was > 100 µM throughout.

On to `Cc1c(N)nc([C@H](CC(N)=O)NC[C@H](N)C(N)=O)nc1C(=O)N[C@H](C(=O)N[C@H](C)[C@@H](O)CC(=O)N[C@H](C(=O)NC(O[C@@H]1O[C@@H](C)[C@@H](N)[C@@H](O)[C@H]1O)C(O)c1nc(-c2nc(C(=O)NCCCCN)cs2)cs1)[C@@H](C)O)[C@@H](O[C@@H]1O[C@@H](CO)[C@@H](O)[C@H](O)[C@@H]1O[C@H]1O[C@H](CO)[C@@H](O)[C@H](OC(N)=O)[C@@H]1O)c1c[nH]cn1` (some centres undefined), for which the TGI in the assay on BT-549 breast, in the assay on CCRF-CEM leukemia, with HOP-62 NSCLC, with KM12 colon, in the assay on MDA-MB-435 and in the assay on NCI-H23 lung was > 50 µM each time. In addition, the TGI in the assay on NCI/ADR-RES ovarian, in the assay on RXF 393 renal, in the assay with SF-295 CNS and with SK-MEL-2 melanoma was > 50 µM each time.

Turning to `O=C1NC(O)c2ccccc2O1` (centres undefined), the TGI with BT-549 breast, with CCRF-CEM leukemia, with HOP-62 NSCLC, in the assay on KM12 colon, with MDA-MB-435 and in the assay on NCI-H23 lung was > 100 µM throughout. Moreover, the TGI with NCI/ADR-RES ovarian, in the assay with RXF 393 renal, in the assay with SF-295 CNS and in the assay with SK-MEL-2 melanoma was > 100 µM throughout.

Turning to `COc1cc(OC)c(/C=C/C(=O)c2ccc(Nc3ncnc4ccccc34)cc2)c(OC)c1`, the GI50 in the assay with BT-549 breast was 1.04 µM; in the assay on CCRF-CEM leukemia, 0.629 µM; in the assay on HOP-62 NSCLC, 0.966 µM; in the assay on KM12 colon it was 0.51 µM; with MDA-MB-435, 0.13 µM; in the assay on NCI-H23 lung, 0.843 µM. Moreover, the GI50 was 0.394 µM with NCI/ADR-RES ovarian, 0.488 µM in the assay with RXF 393 renal, 0.353 µM in the assay on SF-295 CNS and 1.01 µM with SK-MEL-2 melanoma. In addition, the TGI in the assay with BT-549 breast is 3.62 µM; with CCRF-CEM leukemia, 5.51 µM; with HOP-62 NSCLC it was 2.32 µM; in the assay with KM12 colon it was > 43.9 µM; in the assay on MDA-MB-435, 0.522 µM; in the assay on NCI-H23 lung, 11.5 µM. Moreover, the TGI with NCI/ADR-RES ovarian was 2.55 µM; with RXF 393 renal, 1.95 µM; in the assay with SF-295 CNS, 1.92 µM; with SK-MEL-2 melanoma, 7.36 µM.

As for `O=C1NC(=O)[C@@]2(CC[C@@H](O)C2)c2ccncc21`, the TGI in the assay with BT-549 breast, in the assay with CCRF-CEM leukemia, in the assay with KM12 colon, in the assay with MDA-MB-435, with NCI-H23 lung and in the assay on NCI/ADR-RES ovarian was > 100 µM each time. The TGI with RXF 393 renal and in the assay with SK-MEL-2 melanoma was > 100 µM each time.

On to `Cc1ccc2[nH]c3c(c2c1)N=c1ccccc1=NO3`, for which the GI50 is 14.2 µM in the assay on BT-549 breast; > 100 µM with CCRF-CEM leukemia; 34.8 µM in the assay on KM12 colon; > 100 µM in the assay with MDA-MB-435; 75.9 µM in the assay on NCI-H23 lung; 22.7 µM with NCI/ADR-RES ovarian. Moreover, the GI50 with RXF 393 renal is 47.6 µM; with SF-295 CNS it was 23.8 µM; in the assay with SK-MEL-2 melanoma, > 100 µM. For the same compound, the TGI is 51.6 µM in the assay with BT-549 breast; > 100 µM in the assay on CCRF-CEM leukemia; > 100 µM with KM12 colon; > 100 µM in the assay with MDA-MB-435; > 100 µM with NCI-H23 lung; 71.2 µM with NCI/ADR-RES ovarian. Moreover, the figures for the TGI in the assay on RXF 393 renal, in the assay with SF-295 CNS and in the assay on SK-MEL-2 melanoma were > 100 µM, 84.9 µM and > 100 µM, respectively.

These data come from PubChem BioAssay (NCI).
